Measured values published in the CheMixHub viscosity set.

Assay: xn = mol fraction of the nth substance listed

Clc1cccc(Cl)c1 + CCCCCC
viscosity [mPa·s], 100 kPa
Settings | 298.15 K | 308.15 K | 318.15 K
x1 = 0.0593 | 0.327 | 0.301 | 0.282
x1 = 0.1575 | 0.36 | 0.331 | 0.309
x1 = 0.255 | 0.4 | 0.368 | 0.338
x1 = 0.3473 | 0.446 | 0.407 | 0.37
x1 = 0.4204 | 0.487 | 0.442 | 0.4
x1 = 0.48 | 0.524 | 0.473 | 0.427
x1 = 0.5322 | 0.56 | 0.504 | 0.454
x1 = 0.5704 | 0.588 | 0.528 | 0.475
x1 = 0.6295 | 0.634 | 0.568 | 0.51
x1 = 0.6705 | 0.669 | 0.598 | 0.537
x1 = 0.7263 | 0.719 | 0.642 | 0.577
x1 = 0.8186 | 0.81 | 0.724 | 0.649
x1 = 0.9465 | 0.952 | 0.851 | 0.76

COC(=O)CC(C)=O + CCCCCCO
viscosity [mPa·s], 101.33 kPa
Settings | x1 = 0.1036 | x1 = 0.204 | x1 = 0.3064 | x1 = 0.4075 | x1 = 0.5096 | x1 = 0.6081 | x1 = 0.7063 | x1 = 0.806 | x1 = 0.9023
298.15 K | 3.185 | 2.588 | 2.204 | 1.947 | 1.749 | 1.609 | 1.521 | 1.473 | 1.478
303.15 K | 2.76 | 2.257 | 1.932 | 1.72 | 1.547 | 1.442 | 1.364 | 1.33 | 1.34
308.15 K | 2.409 | 1.989 | 1.711 | 1.527 | 1.387 | 1.302 | 1.238 | 1.211 | 1.222

CCCCCCCCCCCCBr + BrC(Br)C(Br)Br
101 kPa
Settings | viscosity [mPa·s]
298.08 K, x1 = 0.1586 | 7.196
298.08 K, x1 = 0.3004 | 5.936
298.08 K, x1 = 0.4493 | 5.091
298.08 K, x1 = 0.6166 | 4.392
298.08 K, x1 = 0.7772 | 3.877
303.1 K, x1 = 0.1376 | 6.506
303.1 K, x1 = 0.2855 | 5.399
303.1 K, x1 = 0.4255 | 4.58
303.1 K, x1 = 0.6541 | 3.787
303.1 K, x1 = 0.7773 | 3.437
308.11 K, x1 = 0.1363 | 5.669
308.11 K, x1 = 0.289 | 4.673
308.11 K, x1 = 0.4415 | 4.027
308.11 K, x1 = 0.6215 | 3.498
308.11 K, x1 = 0.7595 | 3.147
313.11 K, x1 = 0.1456 | 5.011
313.11 K, x1 = 0.2924 | 4.238
313.11 K, x1 = 0.4286 | 3.667
313.11 K, x1 = 0.634 | 3.093
313.11 K, x1 = 0.782 | 2.781

CCOc1ccccc1 + CCCCCCCCO
viscosity [mPa·s], 101.3 kPa
Settings | x1 = 0.1001 | x1 = 0.1976 | x1 = 0.2997 | x1 = 0.4014 | x1 = 0.4996 | x1 = 0.6027 | x1 = 0.7022 | x1 = 0.8015 | x1 = 0.9016
293.15 K | 6.96 | 5.353 | 4.171 | 3.317 | 2.691 | 2.194 | 1.86 | 1.63 | 1.491
298.15 K | 5.929 | 4.669 | 3.644 | 2.894 | 2.361 | 1.947 | 1.68 | 1.502 | 1.36
308.15 K | 4.308 | 3.441 | 2.698 | 2.152 | 1.742 | 1.436 | 1.234 | 1.111 | 1.042
318.15 K | 3.31 | 2.701 | 2.153 | 1.7 | 1.386 | 1.143 | 0.9913 | 0.9148 | 0.8795

CS(=O)(=O)[O-].C[N+](C)(CCO)CCO + CCO
Settings | viscosity [mPa·s]
298.15 K, 101.33 kPa, x1 = 0.8954 | 947.5

COC(=O)CC(C)=O + CCOC(C)=O
viscosity [mPa·s], 101.33 kPa
Settings | x1 = 0.0001 | x1 = 0.1006 | x1 = 0.1979 | x1 = 0.2962 | x1 = 0.3988 | x1 = 0.4978 | x1 = 0.5934 | x1 = 0.6964 | x1 = 0.7983 | x1 = 0.9006
298.15 K | 0.433 | 0.488 | 0.551 | 0.624 | 0.711 | 0.81 | 0.916 | 1.051 | 1.195 | 1.376
303.15 K | – | 0.462 | 0.519 | 0.587 | 0.666 | 0.755 | 0.849 | 0.97 | 1.099 | 1.258
308.15 K | – | 0.438 | 0.491 | 0.553 | 0.629 | 0.706 | 0.792 | 0.9 | 1.015 | 1.155

CCCCCCCCCCCCCCCCCCCl + CCCCCCCCCC
298 K, 101.3 kPa
Settings | viscosity [mPa·s]
x2 = 0.1067 | 6.162
x2 = 0.2123 | 5.192
x2 = 0.3131 | 4.379
x2 = 0.3996 | 3.651
x2 = 0.508 | 2.885
x2 = 0.6105 | 2.385
x2 = 0.7027 | 1.919
x2 = 0.8012 | 1.487
x2 = 0.8979 | 1.145

CCOC(C)=O + C1CCCCC1
viscosity [mPa·s], 101 kPa
Settings | 298.15 K | 308.15 K
x1 = 0.0548 | 0.841 | 0.706
x1 = 0.1549 | 0.765 | 0.63
x1 = 0.2552 | 0.7 | 0.569
x1 = 0.3558 | 0.643 | 0.52
x1 = 0.4539 | 0.595 | 0.481
x1 = 0.4998 | 0.575 | 0.466
x1 = 0.5513 | 0.554 | 0.451
x1 = 0.6549 | 0.516 | 0.426
x1 = 0.7515 | 0.486 | 0.408
x1 = 0.8531 | 0.458 | 0.395
x1 = 0.9536 | 0.435 | 0.387

CCOc1ccccc1 + CCCCCCCCCO
viscosity [mPa·s], 101.3 kPa
Settings | x1 = 0.1012 | x1 = 0.2001 | x1 = 0.3006 | x1 = 0.4009 | x1 = 0.5013 | x1 = 0.6023 | x1 = 0.7018 | x1 = 0.8005 | x1 = 0.8997
293.15 K | 8.86 | 6.725 | 5.095 | 3.858 | 2.948 | 2.293 | 1.853 | 1.578 | 1.424
298.15 K | 7.33 | 5.611 | 4.298 | 3.299 | 2.57 | 2.039 | 1.692 | 1.488 | 1.361
308.15 K | 5.241 | 4.17 | 3.295 | 2.614 | 2.089 | 1.697 | 1.394 | 1.17 | 1.023
318.15 K | 3.906 | 3.16 | 2.525 | 2.033 | 1.654 | 1.371 | 1.152 | 0.9714 | 0.8556
